Literature values as cited in patent US10421710B2, “Substituted phenethylamines with serotoninergic and/or norepinephrinergic activity” (Auspex Pharmaceuticals, Inc., priority 2007, dated 2019).
Values joined by “and” are separate entries in the source; they are usually repeats but may differ in a detail not shown here. Equal entries are not always repeated.

Details: in humans (b8); species not repeated

| SMILES | half-life (T1/2) |
| --- | --- |
| CN(C)CC(c1ccc(O)cc1)C1(O)CCCCC1 (centres unmarked) [ODV, 0-desmethylvenlafaxine] | ~11 h and 11 h |
| COc1ccc(C(CN(C)C)C2(O)CCCCC2)cc1 (racemic) [venlafaxine, 1-[2-dimethylamino-1-(4-methoxy-phenyl)-ethyl]-cyclohexanol] | ~5 h and 3 to 7 h |
